This is an account of results in US20090170867A1, “TRPV1 ANTAGONISTS INCLUDING SULFONAMIDE SUBSTITUENT AND USES THEREOF” (Shionogi & Co., Ltd., priority 2007, published 2009).

The structures appear in SMILES notation. In brackets after ≈: the same amount, converted by molar mass. Read-outs that look alike come from different tables or passages of the source.

Series [1] deals with T1, human TRPV1 (Homo sapiens, UniProt Q8NER1).
T1 construct: using primers designed surrounding the complete hTRPV1 open reading frame; expressed in transfected cells; host or cells: CHO-K1 cells stably transfected with pcDNA3.1(-)-hVR1 plasmid
T1 sequence (Q8NER1 whole entry): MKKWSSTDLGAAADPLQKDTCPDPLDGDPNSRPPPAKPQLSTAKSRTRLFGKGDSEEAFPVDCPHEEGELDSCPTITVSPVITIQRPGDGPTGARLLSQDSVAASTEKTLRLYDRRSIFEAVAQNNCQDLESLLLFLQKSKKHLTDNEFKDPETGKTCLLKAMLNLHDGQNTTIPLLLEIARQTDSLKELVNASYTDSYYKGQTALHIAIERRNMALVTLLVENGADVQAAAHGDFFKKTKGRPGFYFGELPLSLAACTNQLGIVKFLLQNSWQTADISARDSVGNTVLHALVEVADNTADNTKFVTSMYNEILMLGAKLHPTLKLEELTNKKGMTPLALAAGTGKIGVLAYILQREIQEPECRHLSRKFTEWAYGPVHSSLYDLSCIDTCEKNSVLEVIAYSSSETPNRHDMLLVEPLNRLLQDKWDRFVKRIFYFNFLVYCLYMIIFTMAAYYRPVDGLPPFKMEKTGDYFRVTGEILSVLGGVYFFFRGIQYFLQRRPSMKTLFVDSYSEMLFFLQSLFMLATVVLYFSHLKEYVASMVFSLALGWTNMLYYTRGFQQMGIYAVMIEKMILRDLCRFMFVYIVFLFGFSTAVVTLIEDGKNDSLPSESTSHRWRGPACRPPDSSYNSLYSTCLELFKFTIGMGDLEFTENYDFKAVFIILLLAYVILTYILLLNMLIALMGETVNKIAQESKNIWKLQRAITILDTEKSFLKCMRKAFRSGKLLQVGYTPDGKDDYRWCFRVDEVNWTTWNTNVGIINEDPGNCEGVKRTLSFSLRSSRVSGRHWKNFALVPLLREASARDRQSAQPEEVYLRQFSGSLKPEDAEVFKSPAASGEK
Description: pH-based assay, Protocol 2 (TRPV1/CHO cells, Fura-2 AM, FDSS-3000, pH 5.0-5.1). The class given is cell-based. Conditions: H2SO4 agonist, mean ± SEM, number of trials in parentheses, read-out: TRPV1 IC50 Potency, Human pH CHO (hpH-CHO). The source says:
For Protocol 2, a Chinese Hamster Ovary cell line (CHO) that has been engineered to constitutively express human recombinant TRPV1 was used (TRPV1/CHO cells). The TRPV1/CHO cell line was generated as described below.
The resulting PCR products were purified from agarose gels using Gel Band Purification Kit (GE Healthcare Bioscience) and were subcloned into pCR-Blunt vector (Invitrogen). The cloned cDNA was fully sequenced using a fluorescent dye-terminator reagent (BigDye Terminator ver3.1 Cycle Sequencing Kit, Applied Biosystems) and ABI Prism 3100 genetic analyzer (Applied Biosystems). The pCR-Blunt vector containing the hTRPV1 cDNA was subjected to restriction digestion with EcoRI. The restriction fragment was subcloned into expression vector pcDNA3.1 (−) (Invitrogen) and named pcDNA3.1 (−)-hVR1 plasmid. The sequence of the cDNA encoding TRPV1 is available at GenBank accession number AJ277028.
CHO-K1 cells were maintained in growth medium consisting of α-MEM, 10% FBS (Hyclone), and 100 IU/mL of penicillin-100 μg/mL of streptomycin mixed solution (Nacalai Tesque, Japan) at 37° C. in an environment of humidified 95% air and 5% CO2. The cells were transfected with the pcDNA3.1 (−)-hVR1 plasmid using FuGENE6 (Roche) according to the manufacturer's protocol. 24 hr after transfection, neomycin-resistant cells were selected using 1 mg/mL G418 (Nacalai Tesque). After 2 weeks, individual colonies were picked, expanded, and screened for the expression of hTRPV1 in the capsaicin-induced Ca^2+ influx assay (see below) with a FLIPR (Molecular Devices). A clone with the largest Ca^2+ response to capsaicin was selected and re-cloned by the same procedure. The cells expressing hTRPV1 were cultured in the growth medium supplemented with 1 mg/mL G418.
TRPV1/CHO cells were seeded in the 96-well clear-bottom black-wall plate (Nunc) at densities of 1-2×10^4 cells/well and grown in 100 μL of culture medium (alpha-MEM supplemented with 10% FBS, 20 mM HEPES, 1 mg/mL geneticin and 1% antibiotic-antimycotic mixed stock solution) for 1-2 days before the experiment.
Different agonist solutions with sulfuric acid concentrations of from 15 mM to 18 mM (see FIG. 1) were prepared by diluting 1M sulfuric acid with measuring buffer. The different sulfuric acid concentrations in the agonist solutions were selected such that a 1:4 dilution would result in a final sulfuric acid concentration of between 3.0 mM to 3.6 mM, respectively, as indicated in FIG. 1.
The cells were stimulated using 3.0 mM (well number B1-6), 3.1 mM (C1-6), 3.2 mM (D1-6), 3.3 mM (E1-6), 3.4 mM (F1-6), 3.5 mM (G1-6), or 3.6 mM (H1-6) H2SO4 or pH 7.2 measuring buffer without H2SO4 (A1-6) (FIG. 2).
(1) Culture medium was removed using an 8-channel-pipette (Rainin, USA) from the 96-well plate and the wells were refilled with 100 μL of loading buffer (20 mM HEPES, 115 mM NaCl, 5.4 mM KCl, 0.8 mM MgCl2, 1.8 mM CaCl2, 13.8 mM D-glucose, 2.5 mM probenecid, pH 7.4) containing 5 μM Fura-2 AM (Dojin, Japan).
(2) The 96-well plate was incubated at 37° C. for 45 min.
(3) The loading buffer was removed from each well. The cells were subsequently washed twice with 150 μL of measuring buffer (20 mM HEPES, 115 mM NaCl, 5.4 mM KCl, 0.8 mM MgCl2, 5.0 mM CaCl2, 13.8 mM D-glucose, 0.1% BSA, pH 7.4) (no probenecid). The wells were then refilled with 80 μL of measuring buffer.
(4) After an incubation at 4° C. for 15 min, the 96-well plate was transferred to FDSS-3000 (Hamamatsu Photonics, Japan).
(5) The Fura-2 fluorescent intensity was monitored at a wavelength of 340 nm and at 380 nm, respectively, at a rate of 0.5 Hz for a total of 240 seconds.

Series [2] has as its target T1, human TRPV1. The experiment in a line: Capsaicin-based assay, Protocol 2 (TRPV1/CHO cells, Fluo-4, FLIPR). The class given is cell-based. The settings on record: capsaicin 100 nM final, mean ± SEM, number of trials in parentheses, read-out: TRPV1 IC50 Potency, Human Capsaicin CHO (hCAP-CHO). An outline of the steps: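 CHO cells stably transfected with human TRPV1 cDNA, kept under G418 selection, loaded with 3 μM Fluo-4 for 1 h. Calcium fluorescence followed on FLIPR after a 15 s baseline against capsaicin challenge; compounds at final 100 μM to 1.5625 μM, curves fitted over the full time course.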

Another series is described as follows: Aqueous solubility. The class given is physicochemical. The settings on record: aqueous solution.
[3] abbreviates: pH 1.2, simulated gastric fluid, read-out: aqueous solubility at pH 1.2.
[4] abbreviates: pH 6.8, aqueous buffer, read-out: aqueous solubility at pH 6.8.

As for `O=C(Nc1nc2ccc(Cl)cc2s1)N1CC=C(c2ncc(CO)cc2Cl)CC1` [Compound V2], the results for the IC50 on human TRPV1 [1] and at human TRPV1 [2] were 83.2 ± 7.6 nM and 234 ± 44.6 nM, respectively.
Turning to `O=C(Nc1ccc(C(F)(F)F)cn1)N1CCC(F)(c2ncc([C@@H](O)CO)cc2Cl)CC1` [Compound D4], the half-maximal inhibitory concentration (IC50) (commonly the concentration at which inhibition is half-maximal) was found to be 54.8 nM on human TRPV1 [1] and 69.6 ± 6.9 nM on human TRPV1 [2].
For `O=C(Nc1nc2ccc(F)cc2s1)N1CCC(F)(c2ncccc2Cl)CC1` [Compound 206] the same measures were 1460 nM and 508 nM.
The corresponding values for `O=C(Nc1ccc(S(=O)(=O)C(F)(F)F)cc1)N1CC=C(c2ncc(CO)cc2Cl)CC1` [Compound C2] are 41.8 ± 3.8 nM and 98.7 ± 33.9 nM.
For `O=C(Nc1ccc(C(F)(F)F)cn1)N1CCC(F)(c2ncc([C@H](O)CO)cc2Cl)CC1` [Compound G1] the same measures were 16.4 nM and 31.3 ± 8.8 nM.
With `COCc1cnc(C2=CCN(C(=O)Nc3ccc(S(=O)(=O)C(F)(F)F)cc3)CC2)c(Cl)c1` [Compound A3], the IC50 on human TRPV1 [1] is 310 ± 38.9 nM; on human TRPV1 [2] it was 414 ± 99.6 nM.
For `CN(C)Cc1cnc(C2=CCN(C(=O)Nc3ccc(C(F)(F)F)cc3)CC2)c(Cl)c1` [Compound H6], the solubility in “Aqueous solubility” (setting [3]) and in “Aqueous solubility” (setting [4]) was over 50 µM throughout. In addition, the IC50 on human TRPV1 [2] turned out to be 924 nM.
On to `O=C(Nc1ccc(C(F)(F)F)c(F)c1)N1CCC(F)(c2ncc([C@H](O)CO)cc2F)CC1` [Compound Y3], for which the solubility (as a rule, the dissolved amount per volume that the medium holds) in the series “Aqueous solubility” (setting [3]) is over 50 µM; in the series “Aqueous solubility” (setting [4]) it was 17.4 µM (≈ 8.06 µg/mL). The half-maximal inhibitory concentration (IC50) on human TRPV1 [2] amounted to 43.9 ± 10 nM.
As for `O=C(Nc1ccc(C(F)(F)F)c(F)c1)N1CC=C(c2ncc(CO)cc2Cl)CC1` [Compound M2], the IC50 at human TRPV1 [1] came out at 42 ± 9.1 nM; at human TRPV1 [2], 156 ± 5.6 nM.
Turning to `O=C(Nc1ccc(C(F)(F)F)cc1)N1CC=C(c2ncccc2Cl)CC1` [Compound 200], the solubility in the series “Aqueous solubility” (setting [3]) and in “Aqueous solubility” (setting [4]) was under 0.1 µM each time.
In the case of `CC(O)c1cnc(C2=CCN(C(=O)Nc3ccc(C(F)(F)F)cn3)CC2)c(Cl)c1` (stereo not drawn) [Compound B6], the IC50 was determined as 362 ± 69.1 nM at human TRPV1 [1] and 922 ± 205 nM at human TRPV1 [2].
Consider `CC(C)c1cc(NC(=O)N2CC=C(c3ncc([C@H](O)CO)cc3Cl)CC2)ccc1OC(F)(F)F` [Compound B2], for which the figures for the concentration for half-maximal inhibition (IC50) at human TRPV1 [1] and at human TRPV1 [2] were 40.5 nM and 77.6 ± 12 nM, respectively.
For `Cc1cc(NC(=O)N2CC=C(c3ncc([C@H](O)CO)cc3F)CC2)ccc1OC(F)(F)F` [Compound S3] the same measures were 9.2 nM and 17.7 ± 2 nM.
For `O=C(Nc1ccc(OC(F)(F)F)cc1)N1CC=C(c2ncc(CO)cc2Cl)CC1` [Compound Q2] the same measures were 85.9 ± 21.8 nM and 194 ± 27.1 nM.
The corresponding values for `O=C(Nc1nc2ccc(F)cc2s1)N1CCC(F)(c2ncc([C@H](O)CO)cc2Cl)CC1` [Compound L1, (S)-4-(3-chloro-5-(1,2-dihydroxyethyl)pyridin-2-yl)-4-fluoro-N-(6-fluorobenzo[d]thiazol-2-yl)piperidine-1-carboxamide] are 27.5 ± 3.4 nM and 35.3 ± 12 nM.
As for `CC(C)(O)c1cnc(C2=CCN(C(=O)Nc3ccc(C(F)(F)F)c(F)c3)CC2)c(Cl)c1` [Compound E3], the IC50 at human TRPV1 [1] was determined as 141 ± 23.1 nM; at human TRPV1 [2] it was 671 ± 133 nM.
For `O=C(Nc1ccc(S(=O)(=O)C(F)(F)F)cc1)N1CCC(F)(c2ncc([C@@H](O)CO)cc2Cl)CC1` [Compound B4] the same measures were 5.8 ± 1.3 nM and 57.2 ± 11.6 nM.
